Measurements reported in BigSolDB 2.1.

COc1cc(-c2cc(=O)c3c(O)cc(O)cc3o2)cc(OC)c1O
solubility (mole fraction)
Conditions	288.15 K	293.16 K	298.15 K	303.15 K	308.16 K	313.18 K	318.15 K
in ethanol	5.94e-06	8.85e-06	1.26e-05	1.72e-05	2.19e-05	3e-05	3.83e-05
in water	5e-10	1e-09	1.4e-09	2.1e-09	3.5e-09	5.6e-09	8.1e-09
